Measurements as given in patent publication US20130209433A1, “MODULATION OF AMINO ACID METABOLISM IN THE HYPOTHALAMUS” (Albert Einstein College of Medicine of Yeshiva University, priority 2005, published 2013).

Key:
Sprague Dawley rats = test: ICV (third cerebral ventricle) infusion combined with systemic pancreatic-insulin clamp; assay type: in vivo, rat; details: for rate of glucose infusion (GIR) required to prevent hypoglycemia / decrease in endogenous glucose production / rate of glucose uptake: ICV infusion; for rate of glucose infusion (GIR) required to prevent hypoglycemia / decrease in endogenous glucose production: 3 mM solution at 5 μl/h for 6 hr; for rate of glucose infusion (GIR) required to prevent hypoglycemia: basal insulin clamp; for decrease in endogenous glucose production / rate of glucose uptake: pancreatic-insulin clamp; for rate of glucose uptake: 3 mM solution at 5 μl/h
Text: To test this hypothesis we asked whether a primary increase in hypothalamic proline is per se sufficient to inhibit glucose production, and whether this effect requires metabolism of lactate to pyruvate. Experiments were designed to examine the effect of central administration of proline on whole body insulin action. In order to selectively increase the central availability of proline, we infused this amino acid via a chronic cannula implanted in the third cerebral ventricle (ICV) of conscious rats.
Proline (PRO, 3 mM solution at 5 μl/h) or vehicle (CON) was infused ICV for 6 hr in chronically catheterized Sprague Dawley rats. Insulin action was assessed by a combination of ICV infusions with systemic pancreatic-insulin clamp studies in order to control for the circulating levels of glucoregulatory hormones.
We next examined whether the effect of central proline on glucose production requires the inter-conversion between lactate and pyruvate catalyzed by LDH. In light of the ‘astrocyte-neuron lactate shuttle hypothesis’ (Pellerin and Magistretti, 2004), we proposed that central administration of proline leads to increased glutamate synthesis results in the increased formation of lactate (increased glycolysis) in astro-glia (Pellerin and Magistretti, 2004). Based on our previous work, the increased availability of lactate would in turn be expected to induce robust changes in liver glucose fluxes. Consistent with this hypothesis, impeding the conversion of glucose to lactate in astrocytes or of lactate to pyruvate in neurons within the hypothalamus should inhibit the potent metabolic effects of central proline on liver glucose fluxes. Oxamate (OXA) is a competitive inhibitor of LDH (Brooks et al., 1999). Thus, to test this hypothesis we next co-infused ICV oxamate (50 mM; 3 μl bolus; 5 μl/h) with proline in order to examine whether lactate metabolism is required for the effects of proline and presumably of other gluconeogenic amino acids on glucose production.
The entry of ketogenic amino acids into the oxidative pathway requires their conversion to the respective keto acid a reaction that is catalyzed by various amino acid aminotransferases. The keto acid product generated by leucine aminotransferase from leucine is α-ketoisocaproic acid (KIC) that can then be converted to acetyl-CoA by the consecutive action of five enzymes. The rate-limiting step in this process is the oxidative decarboxylation of KIC catalyzed by the branched-chain ketoacid dehydrogenase complex or BCKDC. This enzyme is inhibited by phosphorylation by a BCKDC kinase. Importantly, BCKDC can be robustly activated by α-chloroisocaproic acid (α-CIC) via inhibition of the BCKDC kinase (Harris et al., 1982). To test whether the central metabolism of ketogenic amino acids such as leucine could also lead to inhibition of glucose production, we next asked whether a primary increase in hypothalamic KIC is per se sufficient to inhibit glucose production, and whether this effect also requires metabolism of lactate to pyruvate and activation of ATP-dependent potassium channels (KATP). Experiments were designed to examine the effect of central administration of KIC on whole body insulin action.

conscious rats = test: Intrahypothalamic (mediobasal hypothalamus) infusion with pancreatic clamp; assay type: in vivo, rat; details: for rate of glucose infusion required to maintain basal glucose levels: IH infusion 0.33 μl/h (L-glutamate 1 mM; KIC 3 mM bilaterally); for glucose production: IH infusion into mediobasal hypothalamus
Method: Thus, we next tested whether the intra-hypothalamic ([…]) administration of glutamate could recapitulate the effects of […] proline on glucose production.
We next aimed to localize the central effects of KIC on liver glucose production. Toward this end, we administered 3 mM KIC (0.33 μl/h) bilaterally within the parenchyma of the medial hypothalamus. The total amount of KIC given during these experiments was 15 fold lower than that used in the ICV experiments. The correct placement of the hypothalamic cannulae was verified via the infusion of radiolabeled KIC as previously reported.

Compound	rate of glucose infusion (GIR) required to prevent hypoglycemia (Sprague Dawley rats) [mg/kg/min]	decrease in endogenous glucose production (Sprague Dawley rats) [%]	rate of glucose uptake (Sprague Dawley rats)	rate of glucose infusion required to maintain basal glucose levels (conscious rats; pancreatic clamp)	glucose production (conscious rats)	also measured
CC(C)CC(=O)C(=O)O [KIC, α-ketoisocaproic acid]	5.2 ± 0.7	40±4	not significantly affected	increase	suppression	glucose utilization (GU) (conscious rats; IH 3 mM KIC, 0.33 μl/h bilaterally, pancreatic clamp): not altered
N[C@@H](CCC(=O)O)C(=O)O [L-glutamate]				significantly increased	marked suppression	circulating glucose after IH administration (conscious rats; IH 1 mM, 0.33 μl/h): 136 ± 2 mg/dL; circulating glucose before IH administration (conscious rats; basal value, before IH L-glutamate 1 mM, 0.33 μl/h): 159 ± 3 mg/dL
COc1ccc(Cl)cc1C(=O)NCCc1ccc(S(=O)(=O)NC(=O)NC2CCCCC2)cc1 [glibenclamide, reference compound]						effect per se on rate of glucose infusion and liver glucose fluxes (Sprague Dawley rats; ICV infusion alone, pancreatic clamp): no effects; effect on the effects of ICV KIC on rate of glucose infusion and liver glucose fluxes (Sprague Dawley rats; co-infused ICV with KIC, oxamate 50 mM, 3 μl bolus, 5 μl/h, glibenclamide 100 μM, pancreatic clamp): negated
O=C(O)[C@@H]1CCCN1 [proline]	5.7 ± 0.9	36±2	not significantly affected			
CC(C)CC(Cl)C(=O)O (stereo not drawn) [α-CIC, α-chloroisocaproic acid]					decrease endogenous glucose production	blood glucose levels (conscious rats; intrahypothalamic infusion, conscious rats): lower blood glucose levels
